Series [1] has as its system SH-SY5Y. The experiment in a line: Neuroprotective activity against amyloid beta(25 to 35)-induced neurotoxicity in human SH-SY5Y cells assessed as cell viability at 10 uM (reference value: 62.1 +/- 2.2%). Conditions: for viability at 10 µM: read-out: Activity. The class given is functional.
Series [2] concerns SH-SY5Y. As to the kind of experiment: Neuroprotective activity against oxygen glucose deprivation-induced neurotoxicity in human SH-SY5Y cells. The class given is functional, cell-based.
The subject of series [3] is SH-SY5Y. As to the kind of experiment: Neuroprotective activity against H2O2-induced neurotoxicity in human SH-SY5Y cells. The class given is functional, cell-based.
For series [4], the system named is SH-SY5Y. The experiment in a line: Neuroprotective activity against amyloid beta(25 to 35)-induced neurotoxicity in human SH-SY5Y cells assessed as cell viability at 10 uM by SRB assay. It counts as functional, cell-based.
The subject of series [5] is SH-SY5Y. The experiment in a line: Cytotoxicity against human SH-SY5Y cells assessed as cell viability by MTT assay. The class given is cell-based.
For series [6], the system named is SH-SY5Y. The experiment in a line: Cytotoxicity against human SH-SY5Y cells assessed as cell proliferation by SRB assay. It counts as cell-based.

These results are taken from ChEMBL document CHEMBL3826978, “Design, synthesis and biological evaluation of novel chiral oxazino-indoles as potential and selective neuroprotective agents against Aβ25-35-induced neuronal damage” (Bioorg Med Chem Lett, 2016).

Activity calls are given as the source filed them. The calls are words filed in the database; no cut-off is given here.

On to `Cc1c2n(c3ccccc13)C[C@H](C)O[C@@H]2c1coc2ccccc2c1=O`, for which the outcome in series [1], in series [2] and in series [3] was inactive.

Consider `Cc1ccc([C@H]2O[C@@H](C)Cn3c2c(C)c2ccccc23)cc1`, for which the outcome in series [1], in series [2] and in series [3] was inactive.

In the case of `Cc1c2n(c3ccccc13)C[C@H](C)O[C@@H]2c1ccc(F)cc1`, the outcome in series [1], in series [2] and in series [3] was inactive.

`Cc1c2n(c3ccccc13)C[C@@H](C)O[C@H]2c1ccccc1`: the result in series [1], in series [2] and in series [3] was inactive.

Regarding `COc1cccc([C@@H]2O[C@@H](C)Cn3c2c(C)c2ccccc23)c1`, the result in series [1], in series [2] and in series [3] was inactive.

Consider `COc1cc([C@@H]2O[C@@H](C)Cn3c2c(C)c2ccccc23)cc(OC)c1OC`, for which the result in series [1], in series [2] and in series [3] was inactive.

Regarding `Cc1c2n(c3ccccc13)C[C@H](C)O[C@@H]2c1cccs1`, the outcome in series [1], in series [2] and in series [3] was inactive.

On to `Cc1ccccc1[C@H]1O[C@@H](C)Cn2c1c(C)c1ccccc12`, for which the outcome in series [1], in series [2] and in series [3] was inactive.

In the case of `Cc1c2n(c3ccccc13)C[C@H](C)O[C@@H]2c1ccccc1`, the outcome in series [1], in series [2] and in series [3] was inactive.

On to `Cc1c2n(c3ccccc13)C[C@H](C)O[C@H]2c1ccc(F)cc1`, for which the outcome in series [1], in series [2] and in series [3] was inactive.

On to `CCc1ccc([C@H]2O[C@@H](C)Cn3c2c(C)c2ccccc23)cc1`, for which the viability at 10 µM in series [1] was 93%. Also, the result in series [4] was Active. The Activity entry in series [5] and in series [6] was “Non-toxic” in each case. Also, the outcome in series [2] and in series [3] was inactive.

Regarding `Cc1c2n(c3ccccc13)C[C@H](C)O[C@@H]2c1ccc(C(C)(C)C)cc1`, the viability at 10 µM in series [1] turned out to be 84.5%. The result in series [2] and in series [3] was inactive.

For `COc1ccccc1[C@H]1O[C@@H](C)Cn2c1c(C)c1ccccc12`, the outcome in series [1], in series [2] and in series [3] was inactive.

As for `Cc1cccc([C@@H]2O[C@@H](C)Cn3c2c(C)c2ccccc23)c1`, the outcome in series [1], in series [2] and in series [3] was inactive.

Turning to `Cc1cc(C)cc([C@@H]2O[C@@H](C)Cn3c2c(C)c2ccccc23)c1`, in series [1], the viability at 10 µM amounted to 87.1%. In addition, the result in series [2] and in series [3] was inactive.

In the case of `Cc1c2n(c3ccccc13)C[C@H](C)O[C@@H]2c1ccc(Cl)cc1`, in series [1], the viability at 10 µM is 74.4%. Moreover, the outcome in series [2] and in series [3] was inactive.

As for `COc1ccccc1[C@@H]1O[C@@H](C)Cn2c1c(C)c1ccccc12`, the viability at 10 µM in series [1] turned out to be 77.7%. The result in series [2] and in series [3] was inactive.

Regarding `Cc1c2n(c3ccccc13)C[C@@H](C)O[C@H]2c1ccc(F)cc1`, the viability at 10 µM in series [1] came out at 90.6%. For the same molecule, in series [4], the outcome was Active. The Activity entry in series [5] and in series [6] was “Non-toxic” each time. Moreover, the outcome in series [2] and in series [3] was inactive.

`Cc1c2n(c3ccccc13)C[C@@H](C)O[C@@H]2c1ccc(F)cc1`: the result in series [1], in series [2] and in series [3] was inactive.

In the case of `Cc1c2n(c3ccccc13)C[C@@H](C)O[C@@H]2c1ccccc1`, the outcome in series [1], in series [2] and in series [3] was inactive.

In the case of `Cc1c2n(c3ccccc13)C[C@H](C)O[C@H]2c1ccc(CC(C)C)cc1`, the viability at 10 µM in series [1] is 96.2%. In addition, in series [4], the result was Active. Further, the Activity result in series [5] and in series [6] was “Non-toxic” in each case. Also, the outcome in series [2] and in series [3] was inactive.

`Cc1c2n(c3ccccc13)C[C@H](C)O[C@H]2c1ccccc1`: the outcome in series [1], in series [2] and in series [3] was inactive.

For the molecule `Cc1c2n(c3ccccc13)C[C@H](C)O[C@H]2c1ccc(Cl)cc1`, the result in series [1], in series [2] and in series [3] was inactive.

For the molecule `Cc1ccc([C@@H]2O[C@@H](C)Cn3c2c(C)c2ccccc23)cc1`, the outcome in series [1], in series [2] and in series [3] was inactive.

With `Cc1c2n(c3ccccc13)C[C@H](C)O[C@H]2c1cccs1`, the result in series [1], in series [2] and in series [3] was inactive.

In the case of `COc1cc([C@H]2O[C@@H](C)Cn3c2c(C)c2ccccc23)cc(OC)c1OC`, the result in series [1], in series [2] and in series [3] was inactive.

In the case of `O=C(O[C@@H]1Cc2c(O)cc(O)cc2O[C@@H]1c1cc(O)c(O)c(O)c1)c1cc(O)c(O)c(O)c1` [EPIGALOCATECHIN GALLATE], the viability at 10 µM in series [1] was determined as 98.6%.

`CCc1ccc([C@@H]2O[C@@H](C)Cn3c2c(C)c2ccccc23)cc1`: the result in series [1], in series [2] and in series [3] was inactive.

For `Cc1c2n(c3ccccc13)C[C@H](C)O[C@H]2c1ccc(C(C)(C)C)cc1`, the viability at 10 µM in series [1] stood at 92.1%. The outcome in series [4] was Active. The Activity result in series [5] and in series [6] was “Non-toxic” each time. Moreover, the result in series [2] and in series [3] was inactive.

For the molecule `Cc1ccccc1[C@@H]1O[C@@H](C)Cn2c1c(C)c1ccccc12`, the result in series [1], in series [2] and in series [3] was inactive.

As for `Cc1c2n(c3ccccc13)C[C@H](C)O[C@@H]2c1ccc(CC(C)C)cc1`, the viability at 10 µM in series [1] turned out to be 108%. Further, the result in series [4] was Active. Moreover, the Activity result in series [5] and in series [6] was “Non-toxic” throughout. The outcome in series [2] and in series [3] was inactive.

On to `COc1cccc([C@H]2O[C@@H](C)Cn3c2c(C)c2ccccc23)c1`, for which the outcome in series [1], in series [2] and in series [3] was inactive.

As for `Cc1c2n(c3ccccc13)C[C@H](C)O[C@@H]2c1ccc(C(F)(F)F)cc1`, the outcome in series [1], in series [2] and in series [3] was inactive.

On to `Cc1cc(C)cc([C@H]2O[C@@H](C)Cn3c2c(C)c2ccccc23)c1`, for which the result in series [1], in series [2] and in series [3] was inactive.

For the molecule `Cc1c2n(c3ccccc13)C[C@H](C)O[C@H]2c1ccc(C(F)(F)F)cc1`, the result in series [1], in series [2] and in series [3] was inactive.

`Cc1cccc([C@H]2O[C@@H](C)Cn3c2c(C)c2ccccc23)c1`: the outcome in series [1], in series [2] and in series [3] was inactive.
